# In patent US20080139513A1, “TRANSDERMAL DELIVER OF ACTIVE AGENTS” (Novavax, Inc., priority 2006, published 2008):
# Counter-ions that a name gives are not always drawn. Like-named read-outs stand apart in the source and are kept apart here.
# Legend:
# mice [1] = conditions: cited from earlier work
# mammalian cell mutation = conditions: cited from earlier work
# rat hepatocytes = conditions: cited from earlier work
# Chinese hamsters = conditions: cited from earlier work
# bacterial mutagenesis = conditions: with and without metabolic activation; cited from earlier work
# [2] = system: Chinese hamster ovary cells; conditions: cited from earlier work
# [3] = cited from earlier work
# postmenopausal women = conditions: cited from earlier work
# [4] = cited from earlier work; remark: listed apart in the source
# mice [5] = conditions: cited from earlier work; remark: listed apart in the source
# uterus = conditions: clinical studies; cited from earlier work
# [6] = cited from earlier work; remark: listed apart in the source
# women [7] = conditions: women taking the drug, MORE trial; cited from earlier work
# [8] = oral, cited from earlier work
# [9] = cited from earlier work; remark: listed apart in the source
# rats = conditions: female rats given 279 mg/kg, 2 years; cited from earlier work
# in vitro = conditions: human, topical or ocular
# women [10] = conditions: cited from earlier work
molecule,measurement,setting,value
"O=C(c1ccc(OCCN2CCCCC2)cc1)c1c(-c2ccc(O)cc2)sc2cc(O)ccc12 [Raloxifene.HCl, raloxifene hydrochloride]","genotoxicity, in vivo micronucleus test",mice [1],not genotoxic
same,"genotoxicity, mouse lymphoma assay",mammalian cell mutation,not genotoxic
same,"genotoxicity, unscheduled DNA synthesis assay",rat hepatocytes,not genotoxic
same,"genotoxicity, in vivo sister chromatid exchange assay",Chinese hamsters,not genotoxic
same,"genotoxicity, Ames test",bacterial mutagenesis,not genotoxic
same,"genotoxicity, chromosomal aberration assay",[2],not genotoxic
same,increase in AUC with increasing doses,[3]; doses ranging from 30 to 150 mg,slightly less than a proportional increase
O=C(c1ccc(OCCN2CCCCC2)cc1)c1c(-c2ccc(O)cc2)sc2cc(O)ccc12 [Raloxifene],fewer uterine cancers than those assigned to tamoxifen,postmenopausal women; STAR trial,36%
same,reduction of risk for invasive breast cancer,"postmenopausal women; postmenopausal women, STAR trial interim analysis",approximately 50%
same,water solubility,[4]; H2O,0.25 µg/mL
same,incidence of ovarian tumors,"mice [5]; female mice given 9 to 242 mg/kg, 21 months",increased incidence
same,incidence of prostatic leiomyoblastoma,mice [5]; male mice given 210 mg/kg,increased incidence
same,"incidence of testicular interstitial cell tumors, prostatic adenomas, and adenocarcinomas",mice [5]; male mice given 41 or 210 mg/kg,increased incidence
same,uterotrophic activity,uterus,does not have uterotrophic activity
same,increased incidence of VTE,[6]; oral,2-4 times
same,plasma antithrombin levels,[6]; raloxifene use,significant reduction
same,tPA levels,[6]; raloxifene use,significant reduction
same,incidence of breast cancer compared with controls,women [7],lower incidence
same,absolute bioavailability,[8],2%
same,absolute bioavailability,[8]; listed as raloxifene,approximately 2%
same,log P,[9],5.749
same,incidence in ovarian tumors of granulosa/theca cell origin,rats,increased incidence
same,plasma elimination half-life,[3]; after oral dosing,27.7 h
same,clearance rate,[3]; following intravenous administration,approximating hepatic blood flow
same,bioavailability at 3 wt %,in vitro,~1%
estrogen,VTE rates compared to placebo group,women [10]; estrogen transdermally,no significant difference
same,risk of VTE compared to a placebo group,"women [10]; oral estrogen, 95 percent CI 1.8-6.8",3.5 fold
O=C1CC[C@@]2(O)[C@H]3Cc4ccc(O)c5c4[C@@]2(CCN3CC2CC2)[C@H]1O5 [Naltrexone],solubility in water,[4]; water,water soluble
